Structures are written as SMILES.

The target of assay [1] is T1, Adrenergic receptor alpha-2 (Rattus norvegicus, UniProt P22086+P19328+P22909).
T1 sequence (P22086 whole entry): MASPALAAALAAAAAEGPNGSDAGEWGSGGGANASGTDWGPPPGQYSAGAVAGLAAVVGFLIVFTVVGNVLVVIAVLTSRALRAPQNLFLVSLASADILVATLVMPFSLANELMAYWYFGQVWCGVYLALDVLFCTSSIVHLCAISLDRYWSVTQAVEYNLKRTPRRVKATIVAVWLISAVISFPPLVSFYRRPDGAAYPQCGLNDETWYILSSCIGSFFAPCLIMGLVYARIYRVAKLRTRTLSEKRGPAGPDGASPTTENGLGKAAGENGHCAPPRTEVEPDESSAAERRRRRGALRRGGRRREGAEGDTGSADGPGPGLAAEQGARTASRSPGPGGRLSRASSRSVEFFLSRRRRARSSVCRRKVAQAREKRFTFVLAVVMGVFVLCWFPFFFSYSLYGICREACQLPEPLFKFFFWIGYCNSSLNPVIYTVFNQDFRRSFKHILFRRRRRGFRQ
T1 sequence (P19328 whole entry): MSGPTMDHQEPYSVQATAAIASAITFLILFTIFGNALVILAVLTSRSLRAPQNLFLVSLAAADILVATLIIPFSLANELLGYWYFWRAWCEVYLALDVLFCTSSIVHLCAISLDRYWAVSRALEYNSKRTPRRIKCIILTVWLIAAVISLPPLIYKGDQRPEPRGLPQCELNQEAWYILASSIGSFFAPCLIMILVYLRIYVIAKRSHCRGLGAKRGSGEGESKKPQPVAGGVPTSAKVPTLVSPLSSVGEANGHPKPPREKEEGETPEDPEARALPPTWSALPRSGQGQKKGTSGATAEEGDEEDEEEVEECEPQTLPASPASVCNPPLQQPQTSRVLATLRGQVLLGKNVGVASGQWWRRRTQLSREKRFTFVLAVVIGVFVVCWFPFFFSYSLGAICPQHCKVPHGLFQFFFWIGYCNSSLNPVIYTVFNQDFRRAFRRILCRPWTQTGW
T1 sequence (P22909 whole entry): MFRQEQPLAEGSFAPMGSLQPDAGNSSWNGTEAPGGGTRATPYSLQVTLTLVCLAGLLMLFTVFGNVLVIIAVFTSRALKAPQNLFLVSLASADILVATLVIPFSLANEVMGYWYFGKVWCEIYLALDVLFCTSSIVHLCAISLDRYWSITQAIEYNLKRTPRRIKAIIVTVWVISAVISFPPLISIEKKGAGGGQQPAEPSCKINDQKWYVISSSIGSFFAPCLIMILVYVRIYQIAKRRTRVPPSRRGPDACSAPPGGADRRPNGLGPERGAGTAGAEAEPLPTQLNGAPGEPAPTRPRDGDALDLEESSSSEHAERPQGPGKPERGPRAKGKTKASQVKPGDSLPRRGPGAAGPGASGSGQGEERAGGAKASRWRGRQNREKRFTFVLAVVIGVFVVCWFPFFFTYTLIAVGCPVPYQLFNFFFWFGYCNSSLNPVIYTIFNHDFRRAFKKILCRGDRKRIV
Description: Binding affinity at alpha-2 adrenergic receptors of rat. Format: protein assay.

Assay [2] is described as follows: Binding affinity at rat imidazoline receptor I-2.
Assay [3] addresses 5-hydroxytryptamine receptor 2A (Rattus norvegicus, UniProt P14842). As to the kind of experiment: Binding affinity at 5-hydroxytryptamine 2A receptor of rat.
Assay [4] addresses T2, Alpha-2B adrenergic receptor (Rattus norvegicus, UniProt P19328).
T2 sequence (P19328 whole entry): T1 sequence (P19328 whole entry)
Description: Binding affinity at alpha 2B adrenergic receptor of rat.

For assay [5], the target named is T3, Alpha-2A adrenergic receptor (Rattus norvegicus, UniProt P22909).
T3 sequence (P22909 whole entry): T1 sequence (P22909 whole entry)
As to the kind of experiment: Binding affinity at alpha-2 adrenergic receptor of rat.

Sequence of 5-hydroxytryptamine receptor 2A (P14842 whole entry): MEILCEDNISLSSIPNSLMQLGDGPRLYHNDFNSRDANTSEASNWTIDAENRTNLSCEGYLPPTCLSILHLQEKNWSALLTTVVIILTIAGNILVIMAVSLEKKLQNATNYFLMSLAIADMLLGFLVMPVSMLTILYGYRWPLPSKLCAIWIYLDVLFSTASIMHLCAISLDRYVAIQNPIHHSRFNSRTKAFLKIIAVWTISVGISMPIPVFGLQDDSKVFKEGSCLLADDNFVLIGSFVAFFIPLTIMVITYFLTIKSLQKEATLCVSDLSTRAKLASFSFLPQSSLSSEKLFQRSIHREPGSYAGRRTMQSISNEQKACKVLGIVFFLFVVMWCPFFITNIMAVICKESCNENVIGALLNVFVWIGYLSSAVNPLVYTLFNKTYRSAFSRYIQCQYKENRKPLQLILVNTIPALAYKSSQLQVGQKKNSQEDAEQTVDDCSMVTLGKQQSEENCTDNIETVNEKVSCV

`COc1cccc2c3c([nH]c12)CNCC3`: the inhibitory constant (Ki) (commonly a measure of affinity in units of concentration, obtained from inhibition or displacement) in assay [1] is 640 nM; in assay [2], 270 nM.

On to `Cn1c2c(c3ccccc31)CCNCC2` [PNU-22394], for which the values for the Ki in assay [1] and in assay [2] were 415 nM and 1030 nM, respectively.

For `NCc1c[nH]c2ccccc12`, the figures for the Ki in assay [1] and in assay [2] were 14700 nM and 3440 nM, respectively.

As to `Cn1c2c(c3ccccc31)CCNC2`, the inhibition constant Ki in assay [2] is 5.4 nM.

Consider `C1=NCCc2c1[nH]c1ccccc21`, for which the values for the Ki in assay [1] and in assay [2] were 700 nM and 7.3 nM, respectively.

As for `Brc1cccc2[nH]c3c(c12)CCN=C3`, the Ki in assay [3] stood at 180 nM; in assay [1], 3160 nM; in assay [2], 86 nM.

Compound `COc1cc(Br)c2c3c([nH]c2c1)CNCC3` showed a Ki in assay [2] of 1740 nM.

On to `COc1ccc2c3c([nH]c2c1)CNCC3`, for which the Ki in assay [3] was more than 1000 nM; in assay [4] it was 140 nM.

For the compound `Brc1ccc2[nH]c3c(c2c1)CCN=C3`, the Ki in assay [1] came to 5290 nM; in assay [2], 790 nM.

Regarding `c1ccc2c3c([nH]c2c1)CCNC3`, the Ki in assay [1] amounted to 600 nM; in assay [2], 4.7 nM.

With `Brc1ccc2c3c([nH]c2c1)C=NCC3`, the Ki in assay [1] amounted to 10700 nM; in assay [2] it was 400 nM.

Take `Brc1ccc2[nH]c3c(c2c1)CCNC3`: the Ki in assay [1] was 11500 nM; in assay [2] it was 2780 nM.

Turning to `COc1cccc2[nH]c3c(c12)CCNC3`, the Ki in assay [1] is 825 nM; in assay [2], 300 nM.

`COc1ccc2c3c([nH]c2c1)C=NCC3` [CGS-19281A]: the Ki was more than 10000 nM in assay [1] and 18 nM in assay [2].

Consider `Brc1cccc2c3c([nH]c12)CNCC3`, for which the Ki in assay [2] came out at 3.6 nM; in assay [5], 460 nM.

For `NCCc1c[nH]c2ccccc12` [TRYPTAMINE], the Ki in assay [1] was found to be 19000 nM; in assay [2] it was 5400 nM.

For the compound `COc1ccc2[nH]c3c(c2c1)CCN=C3`, the figures for the Ki in assay [1] and in assay [2] were 2190 nM and 480 nM, respectively.

For the compound `COc1ccc2[nH]c3c(c2c1)CCNC3`, the Ki in assay [1] amounted to 7830 nM; in assay [2], 1640 nM.

In turn, `COc1ccc2c(c1)[nH]c1c(C)nccc12` [HARMINE] had a Ki in assay [2] of 49 nM.

Consider `Brc1cccc2[nH]c3c(c12)CCNC3`, for which the Ki in assay [1] worked out at 390 nM; in assay [2], 5.4 nM.

In the case of `Brc1ccc2c3c([nH]c2c1)CNCC3`, the Ki stood at 15500 nM in assay [1] and 1290 nM in assay [2].

Consider `COc1cccc2[nH]c3c(c12)CCN=C3`, for which the results for the Ki in assay [1] and in assay [2] were 330 nM and 84 nM, respectively.

Compound `c1ccc2c3c([nH]c2c1)CNCC3` [TRYPTOLINE] gave a Ki in assay [2] of 9.4 nM.

As for `Brc1cccc2c3c([nH]c12)C=NCC3`, the Ki came to 815 nM in assay [1] and 17 nM in assay [2].

`COc1cccc2c3c([nH]c12)C=NCC3`: the Ki in assay [1] worked out at 5020 nM; in assay [2], 160 nM.

Consider `COc1ccc2c(c1)[nH]c1cnccc12`, for which, in assay [2], the Ki worked out at 87 nM.

These data come from ChEMBL document CHEMBL1149219, “Binding of beta-carbolines at imidazoline I2 receptors: a structure-affinity investigation” (Bioorg Med Chem Lett, 2004).
